# Results reported in patent US20140127202A1, “ANTITUMOUR COMBINATIONS CONTAINING A VEGF INHIBITING AGENT AND IRINOTECAN” (Aventis Pharma S.A., priority 2007, published 2014).
# Columns and labels:
# [1] = Antitumor activity and toxicity in mice grafted subcutaneously with HCT116 human tumor fragments; format: in vivo; settings: mouse, in vivo, iv; irinotecan alone, i.v. twice a day on days 12, 15, 18; read-out: maximum tolerated dose, total injected dose
# Protocol: (§1) This effectiveness can be quantified, for example, by the log10 cell kill, which is determined according to the following equation:
# (§2) log10 cell kill=T-C (days)/3.34×Td
# (§3) in which T-C represents the delay in growth of the cells, which is the average time, in days, for the tumors of the treated group (T) and the tumors of the control group (C) to have reached a predetermined value (1 g for example), and Td represents the time, in days, necessary for the volume of the tumor to double in the control animals [T. H. Corbett et al., Cancer, 40, 2660.2680 (1977); F. M. Schabel et al., Cancer Drug Development, Part B, Methods in Cancer Research, 17, 3-51, New York, Academic Press Inc. (1979)]. A product is considered to be active if log10 cell kill is greater than or equal to 0.7. A product is considered to be very active if log10 cell kill is greater than 2.8.
# (§4) The combination, used at its own maximum tolerated dose, in which each of the constituents is present at a dose generally less than or equal to its maximum tolerated dose, will show therapeutic synergy when the log10 cell kill is greater than the value of the log10 cell kill of the best constituent when it is administered alone, and in particular has a superiority of at least one log cell kill.
# (§5) The effectiveness of the combinations on solid tumors can be determined experimentally in the following way:
# (§6) The animals subjected to the experiment, generally mice, are grafted bilaterally, subcutaneously, with 30 to 60 mg of an HCT116 human tumor fragment (Brattain, M. G., Fine, W. D., Khaled, F. M., Thompson, J. and Brattain, D. E., Heterogeneity of malignant cells from a human colonic carcinoma. Cancer Res., 1981, 41, 1751-1756) on day 0. The animals bearing the tumors are randomized before being subjected to the various treatments and controls. In the case of treatment of tumors of the present invention, the tumors were allowed to develop to a size of between 48 and 294 mg, which made it possible to have a median tumor per group of between 129 and 162 mg. […] Animals bearing tumors were also subjected to the same treatments with the excipient alone in order to be able to dissociate the toxic effect of the excipient from the actual effect of the chemotherapy on the tumor. The chemotherapy was begun on day 12 after the tumor graft. The VEGF Trap injections were given subcutaneously simultaneously with the irinotecan injections, which themselves were given intravenously, according to a daily double injection. These injections were carried out on days 12, 15 and 18 after implantation of the tumor. The various groups of animals are weighed three to four times per week until the maximum weight loss is reached, and then the groups are weighed at least once a week until the end of the trial.
# (§7) The tumors are measured two or three times a week until the tumor reaches approximately 2 g or until the death of the animal if the latter occurs before the tumor reaches 2 g. The animals are autopsied at the time of sacrifice.
# (§8) The antitumor activity is determined according to the various parameters recorded.
# (§9) Vials of 1 cm^3 containing 25 mg of VEGF Trap which are diluted in a buffer of 5 mM phosphate, 5 mM sodium citrate, 100 mM sodium chloride, polysorbate 20 and 20% sucrose are prepared according to the usual technique, for subcutaneous administration. The administration volume per mouse is 0.1 ml. The VEGF Trap is administered once a day, on days 12, 15 and 18 after implantation of the tumor.
# (§10) 0.3 ml per mouse is prepared, according to the usual technique, for intravenous administration, from a commercially available solution at 20 mg/ml of irinotecan to be diluted with 5% dextrose in water.
# (§11) These solutions are administered simultaneously, after a suitable dilution.
# (§12) The treatment with irinotecan is repeated twice a day, with a 4-hour interval, on days 12, 15 and 18 after implantation of the tumor.
# (§13) Tumor doubling time=3.2 days.
# (§14) Abbreviations used: (T-C) delay in growth of the tumor, Ick=log cell kill.
# [2] = test system: HCT116 human tumor; experiment: as above; format: in vivo
# Protocol: as §1, §2, §3, §4, §5, §6, §7, §8, §9, §10, §11, §12, §13, §14
# [3] = target: PIGF (placental growth factor) (Homo sapiens, UniProt P49763); settings: cited from earlier work
# Chain of PIGF (placental growth factor) (P49763 19-221): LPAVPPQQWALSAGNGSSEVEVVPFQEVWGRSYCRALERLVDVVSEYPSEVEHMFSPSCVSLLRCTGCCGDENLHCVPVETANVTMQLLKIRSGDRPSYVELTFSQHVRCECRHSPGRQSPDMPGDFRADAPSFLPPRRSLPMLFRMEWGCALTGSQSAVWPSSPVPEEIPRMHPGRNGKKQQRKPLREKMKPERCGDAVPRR
# [4] = target: VEGF-B (Homo sapiens, UniProt P49765); settings: cited from earlier work
# Chain of VEGF-B (P49765 22-207, species assumed): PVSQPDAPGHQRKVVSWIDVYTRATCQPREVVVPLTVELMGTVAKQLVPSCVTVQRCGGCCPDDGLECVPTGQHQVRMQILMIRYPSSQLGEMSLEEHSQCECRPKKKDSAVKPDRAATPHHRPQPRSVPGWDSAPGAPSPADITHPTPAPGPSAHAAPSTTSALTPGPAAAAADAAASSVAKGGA
# [5] = target: T1, VEGF-A (Homo sapiens, UniProt P15692); settings: in comparison with Avastin (bevacizumab); cited from earlier work
# T1 sequence (P15692 207-395 limits assumed): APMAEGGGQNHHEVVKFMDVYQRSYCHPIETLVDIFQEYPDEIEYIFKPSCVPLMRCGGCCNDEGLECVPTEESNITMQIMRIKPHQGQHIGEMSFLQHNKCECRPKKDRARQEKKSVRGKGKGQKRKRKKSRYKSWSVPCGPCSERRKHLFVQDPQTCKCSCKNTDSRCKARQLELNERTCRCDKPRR
# [6] = CPT-11 alone, 12.5 mg/kg per injection i.v., 2x/d days 12, 15, 18, total 75.0 mg/kg, group 9
# [7] = CPT-11 alone, 20.2 mg/kg per injection i.v., 2x/d days 12, 15, 18, total 121.2 mg/kg, group 8
# [8] = CPT-11 alone, 32.5 mg/kg per injection i.v., 2x/d days 12, 15, 18, total 195.0 mg/kg, group 7
# [9] = VEGF Trap alone, 2.5 mg/kg s.c. days 12, 15, 18, total 7.5 mg/kg, group 5
# [10] = VEGF Trap alone, 10.0 mg/kg s.c. days 12, 15, 18, total 30.0 mg/kg, group 4
# [11] = VEGF Trap alone, 25.0 mg/kg s.c. days 12, 15, 18, total 75.0 mg/kg, group 3
# [12] = VEGF Trap alone, 40.0 mg/kg s.c. days 12, 15, 18, total 120.0 mg/kg, group 2
compound,measurement,setting,value
"CCc1c2c(nc3ccc(OC(=O)N4CCC(N5CCCCC5)CC4)cc13)-c1cc3c(c(=O)n1C2)COC(=O)[C@]3(O)CC [CPT-11, irinotecan]",MTD,[1],75 mg/kg
same,Average time for the tumor to reach 750 mg,[2]; [6],37.6 days
same,Comments (activity),[2]; [6],active
same,Comments (dose level),[2]; [6],HNTD
same,"Death due to the product, with day of death",[2]; [6],0/8
same,Log cell kill,[2]; [6],1.8
same,Survivors without tumor at day 144,[2]; [6],0/8
same,T-C,[2]; [6],19.1 days
same,Weight loss of the mouse (date of low-point),"[2]; CPT-11 alone, 12.5 mg/kg per injection i.v., 2x/d days 12, 15, 18, total 75.0 mg/kg, group 9, low-point day 21",−15.9%
same,Comments,[2]; [7],Toxic
same,"Death due to the product, with day of death",[2]; [7],0/8
same,Comments,"[2]; CPT-11 alone, 20.2 mg/kg per injection i.v., 2x/d days 12, 15, 18, total 121.2 mg/kg, group 8, listed as irinotecan",Toxicity was observed
same,Weight loss of the mouse (date of low-point),"[2]; CPT-11 alone, 20.2 mg/kg per injection i.v., 2x/d days 12, 15, 18, total 121.2 mg/kg, group 8, low-point day 19",−21.9%
same,Weight loss of the mouse (date of low-point),"[2]; CPT-11 alone, 20.2 mg/kg per injection i.v., 2x/d days 12, 15, 18, total 121.2 mg/kg, group 8, low-point day 19, listed as irinotecan",greater than 20%
same,Comments,[2]; [8],Toxic
same,"Death due to the product, with day of death",[2]; [8],0/7
same,Comments,"[2]; CPT-11 alone, 32.5 mg/kg per injection i.v., 2x/d days 12, 15, 18, total 195.0 mg/kg, group 7, listed as irinotecan",Toxicity was observed
same,Weight loss of the mouse (date of low-point),"[2]; CPT-11 alone, 32.5 mg/kg per injection i.v., 2x/d days 12, 15, 18, total 195.0 mg/kg, group 7, low-point day 19",−23.1%
same,Weight loss of the mouse (date of low-point),"[2]; CPT-11 alone, 32.5 mg/kg per injection i.v., 2x/d days 12, 15, 18, total 195.0 mg/kg, group 7, low-point day 19, listed as irinotecan",greater than 20%
same,"Death due to the product, with day of death","[2]; CPT-11 alone, 52.4 mg/kg per injection i.v., 2x/d (4 h apart) days 12, 15, 18, total 314.4 mg/kg, group 6, day of death 23",1/8 (23)
same,"Death due to the product, with day of death","[2]; CPT-11 alone, 52.4 mg/kg per injection i.v., 2x/d (4 h apart) days 12, 15, 18, total 314.4 mg/kg, group 6, day of death 23, listed as irinotecan",a death
same,Comments,"[2]; CPT-11 alone, 52.4 mg/kg per injection i.v., 2x/d days 12, 15, 18, total 314.4 mg/kg, group 6",Toxic
same,Comments,"[2]; CPT-11 alone, 52.4 mg/kg per injection i.v., 2x/d days 12, 15, 18, total 314.4 mg/kg, group 6, listed as irinotecan",Toxicity was observed
same,Weight loss of the mouse (date of low-point),"[2]; CPT-11 alone, 52.4 mg/kg per injection i.v., 2x/d days 12, 15, 18, total 314.4 mg/kg, group 6, low-point day 21",−27.0%
same,maximum tolerated dose,"[2]; irinotecan alone, i.v. twice a day on days 12, 15, 18",12.5 mg/kg/inj
"VEGF Trap: fusion protein: D2 Ig domain of VEGFR1 fused to D3 Ig domain of VEGFR2, fused to the Fc domain of IgG1",Average time for the tumor to reach 750 mg,[2]; [9],20.2 days
same,Comments (activity),[2]; [9],inactive
same,"Death due to the product, with day of death",[2]; [9],0/8
same,Log cell kill,[2]; [9],0.2
same,Survivors without tumor at day 144,[2]; [9],0/8
same,T-C,[2]; [9],1.7 days
same,Weight loss of the mouse (date of low-point),"[2]; VEGF Trap alone, 2.5 mg/kg s.c. days 12, 15, 18, total 7.5 mg/kg, group 5, low-point day 19",−8.3 (19) %
same,Average time for the tumor to reach 750 mg,[2]; [10],32.0 days
same,Comments (activity),[2]; [10],active
same,"Death due to the product, with day of death",[2]; [10],0/8
same,Log cell kill,[2]; [10],1.3
same,Survivors without tumor at day 144,[2]; [10],1/8
same,T-C,[2]; [10],13.5 days
same,Weight loss of the mouse (date of low-point),"[2]; VEGF Trap alone, 10.0 mg/kg s.c. days 12, 15, 18, total 30.0 mg/kg, group 4, low-point day 19",−5.0 (19) %
same,Average time for the tumor to reach 750 mg,[2]; [11],36.8 days
same,Comments (activity),[2]; [11],active
same,"Death due to the product, with day of death",[2]; [11],0/8
same,Log cell kill,[2]; [11],1.7
same,Survivors without tumor at day 144,[2]; [11],0/8
same,T-C,[2]; [11],18.3 days
same,Weight loss of the mouse (date of low-point),"[2]; VEGF Trap alone, 25.0 mg/kg s.c. days 12, 15, 18, total 75.0 mg/kg, group 3, low-point day 13",−2.2 (13) %
same,Average time for the tumor to reach 750 mg,[2]; [12],36.8 days
same,"Death due to the product, with day of death",[2]; [12],0/8
same,Log cell kill,[2]; [12],1.7
same,Survivors without tumor at day 144,[2]; [12],0/8
same,T-C,[2]; [12],18.3 days
same,Comments (activity),"[2]; VEGF Trap alone, 40.0 mg/kg s.c. days 12, 15, 18, total 120.0 mg/kg, group 2 (HDT)",active
same,Weight loss of the mouse (date of low-point),"[2]; VEGF Trap alone, 40.0 mg/kg s.c. days 12, 15, 18, total 120.0 mg/kg, group 2, low-point day 13",−3.1 (13) %
same,tolerability,"[2]; VEGF Trap alone, all the dosages tested (2.5 to 40 mg/kg/administration s.c.)",well-tolerated
same,binding to PIGF (selectivity profile),[3],also binds
same,binding to VEGF-B (selectivity profile),[4],also binds
same,affinity for VEGF-A compared with Avastin,[5],much higher affinity
